Patent US11964941B2, “5-Bromo-indirubins” (City of Hope, priority 2014, dated 2024)

Assays:
Format in all cases: cell-based, human
[1] = tested on: A2058 melanoma cells; assay: MTS cell viability, A2058 melanoma cells; settings: Homo sapiens, 48 h, read-out: IC50 for 50% inhibition of viability
Procedure: (§1) MTS assays were performed for cell viability. Human cancer cells were seeded in 96-well plates (2500 cells/well for solid tumors, 5000 cells/well for blood tumors), incubated overnight at 37 C in 5% CO2, and exposed to 5IN-1NH1 or 5IN-1NH1s in a dose-dependent manner for 48 h. See FIGS. 1A-1B, 2A-2B, 3, 4A-4B, and 6A-6B. Dimethyl sulfoxide (DMSO) was used as the vehicle control. Viable cell numbers were determined by tetrazolium conversion to its formazan dye and absorbance was measured at 490 nm using an automated ELISA plate reader. Each experiment was performed in quadruplicate. IC50 values were determined using CalcuSyn software (BIOSOFT®, Cambridge GB).

[2] = tested on: MDA-MB-231 breast cancer cells; assay: MTS cell viability, MDA-MB-231 breast cancer cells; settings: Homo sapiens, 48 h, read-out: IC50 for 50% inhibition of viability
Procedure: as §1

[3] = tested on: MV4-11 AML cells; assay: MTS cell viability, MV4-11 AML cells (FLT3-ITD); settings: Homo sapiens, 48 h, read-out: IC50 for 50% inhibition of viability
Procedure: as §1
(§2) Compound (1289) inhibits viabilities of MV4-11 and MOLM13 AML cells that harbor an internal tandem duplication (ITD) mutation. MTS assays were performed for cell viability. Human MV4-11 and MOLM13 AML cells (5000/well) were seeded in 96-well plates, incubated overnight at 37° C. in 5% CO2, and exposed to compound (1289) in a dose-dependent manner for 48 h. Dimethyl sulfoxide (DMSO) was used as the vehicle control. Viable cell numbers were determined by tetrazolium conversion to its formazan dye and absorbance was measured at 490 nm using an automated ELISA plate reader. Each experiment was performed in quadruplicate. IC50 values were determined using CalcuSyn software.

[4] = tested on: A549 lung cancer cells; assay: MTS cell viability, A549 lung cancer cells; settings: Homo sapiens, 48 h, read-out: IC50 for 50% inhibition of viability
Procedure: as §1

[5] = tested on: SKOV3 ovarian cancer cells; assay: MTS cell viability, SKOV3 ovarian cancer cells; settings: Homo sapiens, SK-OV-3, 48 h, read-out: IC50 for 50% inhibition of viability
Procedure: as §1

[6] = tested on: KCL22 CML cells; assay: MTS cell viability, KCL22 CML cells; settings: Homo sapiens, KCL-22, 48 h, read-out: IC50 for 50% inhibition of viability
Procedure: as §1

[7] = tested on: DU145 prostate cancer cells; assay: MTS cell viability, DU145 prostate cancer cells; settings: Homo sapiens, DU-145, 48 h, read-out: IC50 for 50% inhibition of viability
Procedure: as §1

[8] = tested on: MOLM13 AML cells; assay: MTS cell viability, MOLM13 AML cells (FLT3-ITD); settings: Homo sapiens, MOLM-13, 48 h, read-out: IC50 for 50% inhibition of viability
Procedure: as §1, §2

[9] = tested on: T315I ABL1 mutant KCL22 CML cells; assay: MTS cell viability, T315I ABL1 mutant KCL22 CML cells
Procedure: as §1
Human DU145 prostate cancer, A2058 melanoma, SKOV3 ovarian cancer and T315I ABL1 mutant KCL22 CML cells were seeded in 96-well plates (2500 cells/well for solid tumors, 5000 cells/well for blood tumors), incubated overnight at 37° C. in 5% CO2, and exposed to 5IN-6NC1, 5IN-1NH1, 5IN-6NNC6, or 5IN-6NNC7 in a dose-dependent manner for 48 h. Dimethyl sulfoxide (DMSO) was used as the vehicle control. Viable cell numbers were determined by tetrazolium conversion to its formazan dye and absorbance was measured at 490 nm using an automated ELISA plate reader. Each experiment was performed in quadruplicate. IC50 values were determined using CalcuSyn software.

Structure (SMILES): CNCCO/N=C1/C(=C2/C(=O)Nc3ccc(Br)cc32)Nc2ccccc21 [5IN-1NH1]
- IC50 [1]: 77.2 nM
- IC50 [2]: 49.5 nM
- IC50 [3]: 7.8 nM
- IC50 [4]: 66.5 nM
- IC50 [5]: 174 nM
- IC50 [6]: 57.4 nM
- IC50 [7]: 35.7 nM
- IC50 [8]: 11.3 nM
- IC50 ([9]; Homo sapiens, KCL-22, T315I ABL1 mutant KCL22 CML cells, MTS, 48 h, read-out: IC50 for 50% inhibition of viability): 52.3 nM
- potency against T315I KCL22 CML cells relative to compound (1289) ([9]; more potent than compound (1289)): around 10 fold
